Series [1] deals with T1, HIV-1 protease (Human immunodeficiency virus type 1 group M subtype B, UniProt P04585).
T1 construct: HIV-1 protease enzyme (Bachem) was diluted to 166 ug/mL; purchased Bachem
The experiment in a line: HIV-1 protease assay. Format: biochemical. As to conditions: up to 10 μM. Here is the method:
Protease assays. HIV-1 protease enzyme (Bachem) was diluted to 166 ug/mL in 50 mM NaOAc, 5 mM DTT, 2 mM ETDA, and 10% glycerol (pH 5.0) and stored as 10 ul aliquots at −20° C. HIV protease substrate I (Molecular Probes) was diluted to a working concentration of 0.32 nmol/μL. Enzyme (20 μL), substrate (20 μL) and drug (20 μL ) were added to each well of a microtiter plate. Positive and negative controls were evaluated in parallel. Fluorescence was quantitated on a Labsystems Fluoroskan II using 355 nm for excitation and 460 nm emission wavelengths at 37° C. at time zero and at 30 minute intervals for 2 hours.

The test system of series [2] is Vero. Format: cell-based. As for the experimental part:
(§1) Cytotoxicity Analysis. The cytotoxicity of T30177 was assayed as described above. […] The degree of cell proliferation was determined according to the manufacturer's instructions.
(§2) Cytotoxicity Assays. The cytotoxicity of T30177 was determined using several different cell lines and primary human cells as described above. The cytotoxicity profile obtained for log phase growing cells was variable depending upon the cell line used, while the slower growing PBMCs, PBLs, and macrophages all tolerated the compound at concentrations exceeding 100 μM as monitored using the trypan blue exclusion, [^3H]thymidine uptake, or [^3H]leucine uptake techniques.

In series [3] the test system is NIH3T3. Format: cell-based. As for the experimental part: as §1, §2
The test system of series [4] is HIV-1 strain DV. Nature of the series: HIV-1 induced syncytia formation assay in SUP T1 cells. Format: cell-based.

Entries after “also recorded” stand apart in the source; their conditions may differ. Read-outs that look alike come from different tables or passages of the source.

Broadly, the CC50 is the concentration giving 50% cytotoxicity. A lower CC50 goes with harm at low concentration. With “5′-gtggtgggtgggtgggt-3′ (GTGGTGGGTGGGTGGGT; phosphorothioate termini, further chemistry not given here) [T30177, pPT version of parent compound I100-15, 17 mer]”, in series [1], the “inhibition of HIV-1 protease” value was “No observable inhibition; also recorded: no effect on the viral enzyme was observed”. Further, in series [2], the half-maximal cytotoxic concentration (CC50) was > 100 µM, the TC25 is >100 µM and the TC95 was >100 µM. Further, in series [3], the CC50 is > 100 µM, the TC25 was >100 µM and the TC95 was >100 µM.
What is called IC50 is the concentration at which inhibition is half-maximal. Take `Cc1cn([C@H]2C[C@H](N=[N+]=[N-])[C@@H](CO)O2)c(=O)[nH]c1=O` [AZT, 3′-azido-3′-deoxythymidine]: the “reappearance of syncytium after removal of drug” value in series [4] (4 μM, removed day 4) was “two days after removal”. Besides, the IC50 was 0.04 µM in series [4] (Human immunodeficiency virus 1, 96 h, SUP T1, HIV-1DV, four days, read-out: IC50 Syn (syncytium inhibition)) and 0.02 µM in series [4] (Human immunodeficiency virus 1, SUP-T1, size variants of I100-15, read-out: IC50 Syn.).
